Experimental data published in patent publication US20240009218A1, “COMPOSITIONS AND METHODS USING A COMBINATION OF OLEUROPEIN AND QUERCETIN FOR USE IN CARTILAGE DEGENERATION” (SOCIETE DES PRODUITS NESTLE S.A., priority 2020, published 2024).

Tests used:
Assay type in all cases: cell-based
SW1353 cells [1] = experiment: Mitochondrial membrane potential (JC-10 ratio fluorescence 590/525 nm) in SW1353 cells; conditions: after 24 h of IL-1β vs control
Method: To measure mitochondrial membrane potential, SW1353 cells were seeded in 96-well plates at a density of 8000 cells per well in Growth medium (DMEM high glucose, Gibco) with 10% fetal calf serum. Then, cells were loaded with the fluorescent mitochondrial membrane potential sensor JC-10. Fluorescence was acquired with MetaXpress Confocal (Molecular Devices) at following emission wavelengths: 590 nm (excitation at 540 nm) and 525 nm (excitation 490 nm), according to supplier's instructions. The ratio fluorescence at 590 nm/525 nm is proportional to change in the mitochondrial membrane potential.

SW1353 cells [2] = experiment: Chondrocyte function by western blot (collagen-IIα1, MMP3, MMP13) in SW1353 cells; conditions: SW1353 cells treated with IL-1β 24 h or 48 h vs control
Method: To validate the effect of the pro-inflammatory cytokine Interleukin-1β as an osteoarthritis-mimetic in a chondrocyte cellular model and to test the effect of the mitochondrial calcium uniporter (MCU) ablation on chondrocyte function, the inventors measured chondrocyte function and mitochondrial function in SW1353 cells. SW1353 cells were purchased from ATCC. SW1353 cells were seeded in 96-well plates at a density of 10 000 cells per well […] (for mitochondrial calcium measurement) or at a density of 1 000 000 cells (for western blots). Cells were cultured in […] (DMEM, Gibco), high glucose, with 10% fetal calf serum and 1% Penicillin-Streptomycin.
To assess chondrocyte function, the expression of collagen-IIα1, aggrecan, metalloproteinase-3 and -13 (MMP3 and MMP13), were analyzed by western blotting. SW1353 cells were treated or not with 10 ng/ml Interleukin-1b for 24 h or 48 h. Protein extracts were prepared in an appropriate buffer containing 150 mM NaCl, 1.0% IGEPAL CA-630, 0.5% sodium deoxycholate, 0.1% SDS, 50 mM Tris, pH 8.0, Complete EDTA-free protease inhibitor mixture (Roche), 1 mM PMSF, 1 mM NaVO3, 5 mM NaF and 3 mM β-glycerophosphate and phosphatase inhibitors (Roche). 40 μg of total proteins were loaded, according to BCA quantification. Proteins were separated by SDS-PAGE electrophoresis, in commercial 4-12% acrylamide gels (Thermo Fisher Scientific) and transferred onto PVDF membranes (Thermo Fisher Scientific) by wet electrophoretic transfer. Blots were blocked 1 hour at RT with 5% bovine serum albumin (Sigma-Aldrich) in TBS-tween (0.5M Tris, 1.5M NaCl, 0.01% Tween) solution and incubated overnight at 4° C. with primary antibodies. Secondary antibodies were incubated 1 hr at RT. The following antibodies were used: anti-collagen-II al (1:1000, Abcam), anti-aggrecan (1:1000, Abcam), anti-MMP-3 (1:1000, Abcam), anti-MMP-13 (1:1000, Abcam). […] Then the content collagen-IIα1, aggrecan, MMP3 and MMP13 were quantified with densitometry and normalized on the content of GAPDH (detected with anti-GAPDH, 1:5000, Cell Signaling)

SW1353 cells [3] = experiment: Mitochondrial calcium rise in SW1353 chondrocytes, IL-1β osteoarthritic model (mitochondrial aequorin); conditions: SW1353 cells treated with IL-1β vs control
Method: To test the effect of oleuropein (or oleuropein aglycone), quercetin and their combination in living cells, the inventors measured mitochondrial calcium elevation in HeLa cells. HeLa cells were purchased from ATCC. HeLa cells were seeded in 96-well plates at a density of 50000 cells per well in minimal essential medium (DMEM, Gibco), high glucose, +10% fetal calf serum. Mitochondrial calcium measurements were carried out using Hela cells infected with the adenovirus (from Sirion biotech) expressing the mitochondrially targeted calcium sensor mitochondrial mutated aequorin (Montero et al., 2004). […] Luminescence was measured at the FLIPR Tetra Aequorin (Molecular Devices). […] Calibration of the luminescence data into calcium concentration was carried out using an algorithm, as described previously (Alvarez & Montero, 2002). Custom module analysis based on Excel (Microsoft) and GraphPad Prism 7.02 (Graph Pad) software was used for quantification.
To validate the effect of the pro-inflammatory cytokine Interleukin-1β as an osteoarthritis-mimetic in a chondrocyte cellular model and to test the effect of the mitochondrial calcium uniporter (MCU) ablation on chondrocyte function, the inventors measured chondrocyte function and mitochondrial function in SW1353 cells. […]

SW1353 cells [4] = experiment: Cell death, Annexin-V positive cells (IncuCyte) in SW1353 cells; conditions: after 5 days of IL-1β treatment vs control
Method: To quantify the effect of Interleukin-1β on cell death in SW1353 cells, kinetic experiments of apoptosis were performed with the IncuCyte ZOOM instrument (Essen Bioscience, Ann Arbor, MI, USA). Cells were seeded at 50% confluence in 96-well-plate format in DMEM medium. After 24 h, cells were incubated with IncuCyte Annexin-V Green (4642), according to supplier's instructions and treated with IL-1β. Four images per well were collected at the indicated time using a 10× objective and bandwidth filters (Ex: 440/80 nm; Em: 504/44 nm). Data were exported as area (μm2) per well covered by Annexin-V positive objects and normalized for the total area covered by the cells.

How did the “ratio fluorescence (590/525 nm) of mitochondrial membrane potential sensor JC10” value (SW1353 cells [1]) turn out when “IL-1β: pro-inflammatory cytokine Interleukin-1β used as an osteoarthritis-mimetic in SW1353 chondrocytes” was run?
Its value is “significantly decreases”.

And the collagen-IIα1 content (SW1353 cells [2])?
The collagen-IIα1 content was “strongly decreased”.

And the “expression of MMP3” value (SW1353 cells [2])?
Its value is “increased”.

And the “expression of MMP13” value (SW1353 cells [2])?
Its value is “increased”.

What about the “mitochondrial Ca2+ rise stimulated by agonist (histamine)” value (SW1353 cells [3]) of the same substance?
The value was “decrease”.

And the “Annexin-V positive cells (cell death)” value (SW1353 cells [4])?
Its value is “significantly increased”.
